The text below walks through data of article PMC13193874, “Targeting PIP5K ameliorates hepatic cancer by inhibiting PI3K/AKT and the autophagy mechanism and enhancing ROS-mediated apoptosis” (Frontiers in Pharmacology, 2026).

The target in this experiment is PIP5K1B (Homo sapiens, UniProt O14986). Briefly: cell-free kinase assay (Thermo Fisher SelectScreen, ADP detection), 10-point dose response; […] inhibition at […]. The class given is biochemical.
Chain of PIP5K1B (O14986 whole entry): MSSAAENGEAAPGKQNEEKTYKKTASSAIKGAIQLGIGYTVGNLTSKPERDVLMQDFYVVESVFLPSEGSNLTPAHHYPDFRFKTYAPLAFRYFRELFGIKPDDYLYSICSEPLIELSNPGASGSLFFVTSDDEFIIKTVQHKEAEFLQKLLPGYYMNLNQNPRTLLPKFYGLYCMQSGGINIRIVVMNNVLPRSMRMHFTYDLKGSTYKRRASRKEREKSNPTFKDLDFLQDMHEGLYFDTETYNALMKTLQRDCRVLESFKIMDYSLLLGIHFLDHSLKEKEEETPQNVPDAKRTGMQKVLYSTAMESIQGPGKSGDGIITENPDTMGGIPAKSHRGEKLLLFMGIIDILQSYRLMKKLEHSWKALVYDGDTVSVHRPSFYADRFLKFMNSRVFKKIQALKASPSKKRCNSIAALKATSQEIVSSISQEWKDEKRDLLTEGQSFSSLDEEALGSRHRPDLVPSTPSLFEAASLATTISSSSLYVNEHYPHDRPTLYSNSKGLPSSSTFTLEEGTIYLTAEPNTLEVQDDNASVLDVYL

Take `Fc1ccc(Nc2nc(Nc3ccc(-c4nc5ccccc5[nH]4)cc3)nc(N3CCOCC3)n2)cc1` [15g, N2-[4-(1H-benzimidazol-2-yl)phenyl]-N4-(4-fluorophenyl)-6-(4-morpholinyl)-1,3,5-triazine-2,4-diamine]: the half-inhibitory concentration (IC50) is 281 nM. That is a sub-micromolar value.
